The test has as its target T1, nsp10–14 fusion protein (Severe acute respiratory syndrome coronavirus 2, UniProt P0DTD1).
T1 construct: gene rep; with Non-structural protein 10
Description: biochemical.

What is called IC50 is the concentration at which inhibition is half-maximal. A lower IC50 goes with inhibition by little substance. Take `O=C1C=C2C(=CCOC2O)O1` (stereo not shown) [patulin]: the IC50 stood at 1800 nM.

The values are drawn from publication PMC8286829, “Identifying SARS-CoV-2 antiviral compounds by screening for small molecule inhibitors of nsp14/nsp10 exoribonuclease” (Biochemical Journal, 2021).
